Data set [1] in a line: Cytotoxicity in yeast assessed as reduction in cell proliferation. It counts as organism-based. The note with it: saccharomyces cerevisiae, yeast cells.
A short description of data set [2]: Cytotoxicity against MDCK cells assessed as reduction in cell viability after 24 hrs by MTT assay. In kind it is cell-based, Canis lupus familiaris. The note with it: dog. In general terms: Tetrazolium assays rely on reduction of a dye to a coloured formazan, in cell work by metabolically active cells.
The target in data set [3] is Matrix protein 2 (Influenza A virus (A/Udorn/307/1972(H3N2)), UniProt P0DOF8).
The next data set deals with Influenza A virus. Briefly: Antiviral activity against Influenza A virus H5N1 infected in MDCK cells after 2 to 3 days by crystal violet staining-based plaque reduction assay. It counts as functional, organism-based. For orientation: Plaque reduction counts the foci of infection that form in a cell layer.

We go through 30 compounds from ChEMBL document CHEMBL4261607 (Eur J Med Chem, 2018).

Chain of Matrix protein 2 (Influenza A virus (A/Udorn/307/1972(H3N2)), UniProt P0DOF8) (P0DOF8 whole entry): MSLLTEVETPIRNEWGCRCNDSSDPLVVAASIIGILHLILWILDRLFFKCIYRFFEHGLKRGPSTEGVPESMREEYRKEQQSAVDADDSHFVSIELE

With `O=C(O)CCN(Cc1cccs1)S(=O)(=O)c1ccc(Br)cc1`, the CC50 – broadly, the concentration at which the toxic effect on the cells reaches its halfway point – in data set [1] was over 166 µM. In addition, the CC50 at 24 h in data set [2] is over 165 µM. The like results for `Cc1ccc(S(=O)(=O)N(CCC#N)Cc2ccco2)cc1` were, in that order, over 220 µM and over 219 µM. The like results for `N#CCCN(Cc1cccs1)S(=O)(=O)c1ccc([N+](=O)[O-])cc1` were, in that order, over 191 µM and over 190 µM. With `Cc1ccc(S(=O)(=O)N(CCC#N)Cc2cccs2)cc1`, in data set [1], the CC50 is over 209 µM. The CC50 at 24 h in data set [2] was found to be 127 µM. Consider `CCOC(=O)C1=C[C@@H](OC(CC)CC)[C@H](NC(C)=O)[C@@H](N)C1` [OSELTAMIVIR], for which the CC50 in data set [1] is over 214 µM. In addition, the EC50 (in general, the concentration giving half of the maximal effect) in data set [3] is recorded as “Not Active”. Regarding `CC(=O)c1ccc(S(=O)(=O)N(CCC#N)Cc2cccs2)cc1`, the CC50 in data set [1] is over 192 µM. Moreover, the half-maximal cytotoxic concentration (CC50) at 24 h in data set [2] is over 191 µM. The like results for `N#CCCN(Cc1ccco1)S(=O)(=O)c1ccc(F)cc1` were, in that order, 216 to 217 µM and 216 to 227 µM. The like results for `O=S(=O)(c1ccc(Br)cc1)N(Cc1cccs1)Cc1cccs1` were, in that order, over 156 µM and 81 µM. The like results for `N#CCCN(Cc1ccc[nH]1)S(=O)(=O)c1ccc(Br)cc1` were, in that order, over 182 µM and over 181 µM. `COc1ccc(S(=O)(=O)N(CCC#N)Cc2ccco2)cc1`: the cytotoxic concentration (CC50) in data set [1] is over 209 µM. The cytotoxic concentration (CC50) at 24 h in data set [2] is over 208 µM. The like results for `N#CCCN(Cc1ccco1)S(=O)(=O)c1ccc(Cl)cc1` were, in that order, over 206 µM and over 205 µM. Take `N#CCCN(Cc1cccs1)S(=O)(=O)c1ccc(Br)cc1`: in data set [1], the CC50 was over 174 µM. Besides, the CC50 at 24 h in data set [2] was over 173 µM. The like results for `NC12CC3CC(CC(C3)C1)C2` [AMANTADINE] were, in that order, over 443 µM and over 441 µM.

In the case of `N#CCCN(Cc1cccs1)S(=O)(=O)c1ccc(Cl)cc1`, the cytotoxic concentration (CC50) in data set [1] was over 197 µM. In addition, the CC50 at 24 h in data set [2] was over 196 µM. The like results for `Cc1cccc(S(=O)(=O)N(CCC#N)Cc2ccco2)c1` were, in that order, over 220 µM and over 219 µM.

On to `N#CCCN(Cc1ccco1)S(=O)(=O)c1ccc(C(F)(F)F)cc1`, for which the CC50 in data set [1] is over 187 µM. Besides, the CC50 at 24 h in data set [2] was over 186 µM.

On to `CCCN(Cc1cccs1)S(=O)(=O)c1ccc(Br)cc1`, for which the CC50 in data set [1] is over 179 µM. In addition, in data set [2], the half-maximal cytotoxic concentration (CC50) at 24 h is over 178 µM. The like results for `N#CCCN(Cc1ccco1)S(=O)(=O)c1ccc(C#N)cc1` were, in that order, over 212 µM and over 212 µM. The like results for `N#CCCN(Cc1cccs1)S(=O)(=O)c1ccc(C#N)cc1` were, in that order, over 202 µM and over 201 µM. The like results for `CCCN(CCC#N)S(=O)(=O)c1ccc(Br)cc1` were, in that order, over 202 µM and 116 µM. For `N#CCCN(Cc1cccs1)S(=O)(=O)c1ccc(F)cc1`, the CC50 in data set [1] is over 206 µM. For the same compound, in data set [2], the CC50 at 24 h was over 206 µM. `N#CCCN(Cc1cccs1)S(=O)(=O)c1ccccc1F`: the CC50 in data set [1] was over 206 µM. The CC50 at 24 h in data set [2] was over 206 µM. Regarding `N#CCCN(Cc1cccs1)S(=O)(=O)c1ccc(C(F)(F)F)cc1`, the CC50 in data set [1] is over 179 µM. In addition, the CC50 at 24 h in data set [2] was over 178 µM. Turning to `COc1ccc(S(=O)(=O)N(CCC#N)Cc2cccs2)cc1`, the CC50 in data set [1] was over 199 µM. Further, the CC50 at 24 h in data set [2] was over 198 µM. With `N#CCCN(Cc1ccco1)S(=O)(=O)c1ccc(Br)cc1`, the cytotoxic concentration (CC50) in data set [1] is over 182 µM. The cytotoxic concentration (CC50) at 24 h in data set [2] is over 181 µM. The like results for `CCOC(=O)CCN(Cc1cccs1)S(=O)(=O)c1ccc(Br)cc1` were, in that order, over 155 µM and over 154 µM.

Consider `N#CCCN(Cc1cccs1)S(=O)(=O)c1cccc(F)c1`, for which, in data set [1], the CC50 is over 206 µM. The half-maximal cytotoxic concentration (CC50) at 24 h in data set [2] is over 206 µM. Take `Cc1cc(C(=O)NCCSCc2ccc([N+](=O)[O-])cc2)c(C)o1`: in the data set with Influenza A virus, the EC50 is 1.25 µM. As to `N#CCCN(Cc1cccs1)S(=O)(=O)c1ccc(N)cc1`, the CC50 in data set [1] was over 179 µM. The CC50 at 24 h in data set [2] was over 208 µM. The like results for `N#CCCN(Cc1ccccc1)S(=O)(=O)c1ccc(F)cc1` were, in that order, over 210 µM and over 210 µM.
